Article PMC12386934, “Characteristics and Potential of KSL, KSL-W, and Dadapin-1 Antimicrobial Peptides for Preventing Infections of Orthopedic Prosthetic Devices: Identifying the Most Robust Candidate” (International Journal of Molecular Sciences, 2025)
Where a SMILES comes first, the peptide text is derived from it.

Tested on: MG63 cells co-cultured with S. aureus ATCC 25923
Test: Suppression of S. aureus cytotoxicity in co-culture, LDH assay
Format: cell-based, human
Conditions: MG63 co-cultured with S. aureus ATCC 25923, 24 h, lowest concentration tested
Description: KSL-W was the peptide selected to investigate the efficacy in suppressing the cytotoxicity of S. aureus ATCC 25923 on osteoblast-like MG63 cells. S. aureus ATCC 25923 was thawed from the frozen stock and plated on MHA and incubated at 37 °C for 24 h.
A suspension of MG63 cells was prepared in complete DMEM at a concentration of 5 × 10^4 cells/mL. A total of 100 µL of cell suspension was added to each well of a 96-well cell culture-treated plate (137101, Nunclon Delta Black Microwell, ThermoScientific, Thermo Fisher Scientific, Segrate, Italy). After cell seeding, the plate was incubated for a day at 37 °C under standard culture conditions. […]
Cytotoxicity was assessed by measuring the release of lactate dehydrogenase (LDH) from damaged cells by the LDH Cytotoxicity Assay (ab197004, Abcam, Cambridge, UK), strictly following the instructions of the manufacturer. […] After 10 min shaking, the plate was read in fluorescence (excitation: 535 nm; emission 587 nm) by an Infinite 200 PRO mod. M PLEX multifunction plate reader (Tecan Group Ltd., Männedorf, Switzerland). […]
Data in relative fluorescence units (RFU) from the investigation on KSL-W suppression of S. aureus cytotoxicity were processed as follows. The mean of the duplicate readings from each single treated well was calculated. […]

CC(C)[C@H](NC(=O)[C@H](Cc1c[nH]c2ccccc12)NC(=O)[C@H](Cc1ccccc1)NC(=O)[C@@H](NC(=O)[C@@H](NC(=O)[C@H](CCCCN)NC(=O)[C@@H](N)CCCCN)C(C)C)C(C)C)C(=O)N[C@@H](CCCCN)C(=O)N[C@@H](Cc1ccccc1)C(=O)N[C@@H](CCCCN)C(=O)O [KSL-W] (H-KKVVFWVKFK-OH)
concentration completely suppressing cytotoxicity due to S. aureus: 75 µg/mL
